The record followed here is article PMC13047053, “Crystal structure of human INPP5K with an allosteric inhibitor reveals the structural basis for species specific potency” (Scientific Reports, 2026).

This assay deals with T1, full-length human INPP5K (INPP5K-full) (Homo sapiens, UniProt Q9BT40).
T1 construct: full-length human INPP5K (amino acids 1–448, UniProt ID: Q9BT40); FLAG (N); made in house; host or cells: Expi293 cells (pcDNA3.4, transient)
T1 sequence (Q9BT40 1-448): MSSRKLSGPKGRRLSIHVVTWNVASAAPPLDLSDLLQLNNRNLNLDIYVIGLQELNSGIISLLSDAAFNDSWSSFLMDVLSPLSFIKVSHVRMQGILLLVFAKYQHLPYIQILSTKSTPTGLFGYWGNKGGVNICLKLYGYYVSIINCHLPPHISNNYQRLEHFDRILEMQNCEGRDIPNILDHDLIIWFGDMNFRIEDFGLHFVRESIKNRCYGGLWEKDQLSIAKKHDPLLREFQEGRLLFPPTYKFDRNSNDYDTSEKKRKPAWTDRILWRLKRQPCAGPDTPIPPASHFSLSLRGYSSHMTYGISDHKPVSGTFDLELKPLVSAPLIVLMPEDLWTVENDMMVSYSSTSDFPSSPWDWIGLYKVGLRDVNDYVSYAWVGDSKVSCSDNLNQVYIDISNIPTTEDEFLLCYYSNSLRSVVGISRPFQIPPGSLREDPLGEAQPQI
In words: Fluorescence polarization assay to evaluate phosphatase inhibition. In kind it is biochemical. To be noted: 20 µM diC8-PI(3,4,5)P3, 30 min. From the text:
The protein purification is described in detail elsewhere. Briefly, full-length human INPP5K (amino acids 1–448, UniProt ID: Q9BT40), rat INPP5K (aa 1–446, UniProt ID: Q9R0B6), mouse INPP5K (aa 1–468, UniProt ID: Q8C5L6), hamster INPP5K (aa 1–453, UniProt ID: G3HTF6), guinea pig INPP5K (aa 1–473, UniProt ID: H0V8T7) containing an N-terminal FLAG-tag, full-length human SHIP2 (aa 1–1 258) containing a C-terminal FLAG-tag, and full-length human PIPP (amino acids 1–1 006) containing an N-terminal His8-tag were all cloned into the pcDNA3.4 expression vector and transiently expressed in Expi293 cells (Thermo Fisher Scientific). […] The purity of the protein obtained was evaluated using SDS-PAGE.
HTS assays were performed as described previously. […] Fluorescence polarization was evaluated using an Envision plate reader (PerkinElmer, U.S. LLC, Shelton, CT, USA) at 531/595 nm (excitation/emission) and calculated as 1 000 × [(I||- (G × I⊥))/(I||+ (G × I⊥))], where I|| is the parallel intensity, I⊥ is the perpendicular intensity, and G = 2.25. The amount of diC8-PI(3,4)P₂ product (P) was determined by standard curve fitting, and the percentage inhibition was calculated using the following equation: 100 × (Pctrl—P)/(Pctrl—Pblank), where Pctrl is the no-inhibitor control and Pblank is the no-enzyme control. […]

Regarding `CC(C)c1sc(NC(=O)c2ccccc2)c(C(=O)O)c1-c1ccccc1` [CPD-1], it took 3.7 µM to reach half-maximal inhibition (IC50).
